Measurements: PubChem BioAssay (NCI)
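Five compound concentrations were applied to cells in 96-well plates for 48 hours; endpoints were derived by simple linear interpolation of the resulting dose-response curve. TGI is the concentration that stops growth completely.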

How the values were obtained:
Assay in all cases: NCI tumour cell line growth inhibition, 48 h
MCF7 breast = tested on: MCF7 breast
MDA-MB-231 breast = tested on: MDA-MB-231 breast
786-0 renal = tested on: 786-0 renal
SK-MEL-5 melanoma = tested on: SK-MEL-5 melanoma
CAKI-1 renal = tested on: CAKI-1 renal
NCI-H226 lung = tested on: NCI-H226 lung
SK-OV-3 ovarian = tested on: SK-OV-3 ovarian
PC-3 prostate = tested on: PC-3 prostate
MDA-MB-435 = tested on: MDA-MB-435
HS 578T breast = tested on: HS 578T breast
SF-539 CNS = tested on: SF-539 CNS
NCI-H522 lung = tested on: NCI-H522 lung
SNB-19 CNS = tested on: SNB-19 CNS
RPMI-8226 leukemia = tested on: RPMI-8226 leukemia
SW-620 colon = tested on: SW-620 colon
OVCAR-4 ovarian = tested on: OVCAR-4 ovarian
HOP-92 NSCLC = tested on: HOP-92 NSCLC
MALME-3M melanoma = tested on: MALME-3M melanoma
ACHN renal = tested on: ACHN renal
OVCAR-5 ovarian = tested on: OVCAR-5 ovarian
M14 melanoma = tested on: M14 melanoma
HCT-116 colon = tested on: HCT-116 colon
OVCAR-8 ovarian = tested on: OVCAR-8 ovarian
OVCAR-3 ovarian = tested on: OVCAR-3 ovarian
SF-268 CNS = tested on: SF-268 CNS
SNB-75 CNS = tested on: SNB-75 CNS
HL-60(TB) leukemia = tested on: HL-60(TB) leukemia
COLO 205 colon = tested on: COLO 205 colon
MOLT-4 leukemia = tested on: MOLT-4 leukemia
SN12C renal = tested on: SN12C renal
HCT-15 colon = tested on: HCT-15 colon
NCI-H23 lung = tested on: NCI-H23 lung
RXF 393 renal = tested on: RXF 393 renal
LOX IMVI melanoma = tested on: LOX IMVI melanoma
BT-549 breast = tested on: BT-549 breast
IGROV1 ovarian = tested on: IGROV1 ovarian
UO-31 renal = tested on: UO-31 renal
KM12 colon = tested on: KM12 colon
SF-295 CNS = tested on: SF-295 CNS
T-47D breast = tested on: T-47D breast
A549 NSCLC = tested on: A549 NSCLC
CCRF-CEM leukemia = tested on: CCRF-CEM leukemia
SK-MEL-28 melanoma = tested on: SK-MEL-28 melanoma
DU-145 prostate = tested on: DU-145 prostate
SR leukemia = tested on: SR leukemia
MDA-N = tested on: MDA-N
K-562 leukemia = tested on: K-562 leukemia
UACC-62 melanoma = tested on: UACC-62 melanoma
SK-MEL-2 melanoma = tested on: SK-MEL-2 melanoma
NCI/ADR-RES ovarian = tested on: NCI/ADR-RES ovarian
HT29 colon = tested on: HT29 colon
A498 renal = tested on: A498 renal
UACC-257 melanoma = tested on: UACC-257 melanoma
EKVX NSCLC = tested on: EKVX NSCLC
U251 CNS = tested on: U251 CNS
NCI-H460 lung = tested on: NCI-H460 lung
SNB-78 CNS = tested on: SNB-78 CNS
HOP-18 NSCLC = tested on: HOP-18 NSCLC
DLD-1 colon = tested on: DLD-1 colon
LXFL 529 NSCLC = tested on: LXFL 529 NSCLC
KM20L2 colon = tested on: KM20L2 colon
HCC-2998 colon = tested on: HCC-2998 colon
TK-10 renal = tested on: TK-10 renal
DMS 114 small cell lung = tested on: DMS 114 small cell lung
HOP-62 NSCLC = tested on: HOP-62 NSCLC
DMS 273 small cell lung = tested on: DMS 273 small cell lung
M19-MEL melanoma = tested on: M19-MEL melanoma

Measured: TGI

CC(=O)Nc1c(C)cc2c(nc3n2CCC3OC(C)=O)c1[N+](=O)[O-] (configuration not stated)
not listed: SNB-78 CNS | HOP-18 NSCLC | DLD-1 colon | LXFL 529 NSCLC | KM20L2 colon | HCC-2998 colon | TK-10 renal | DMS 114 small cell lung | HOP-62 NSCLC | DMS 273 small cell lung | M19-MEL melanoma
> 100 µM: all other assays above

C[C@]12CC/C(=N\O)C=C1CC[C@@H]1C2CC[C@@]2(C)C1CC[C@@H]2OC1CCCCO1 (some centres not stated)
32.4 µM: U251 CNS
31.2 µM: NCI-H23 lung
43.8 µM: HCT-116 colon
33.1 µM: SNB-19 CNS
30.4 µM: KM20L2 colon | SK-MEL-2 melanoma
33.2 µM: SNB-75 CNS | KM12 colon
55.2 µM: SF-268 CNS
31.8 µM: LXFL 529 NSCLC
30 µM: HOP-18 NSCLC
33.3 µM: 786-0 renal
37.7 µM: RPMI-8226 leukemia
50.5 µM: RXF 393 renal
31.9 µM: OVCAR-4 ovarian | HOP-92 NSCLC | OVCAR-3 ovarian | EKVX NSCLC
34.7 µM: NCI-H522 lung
29.5 µM: HCC-2998 colon
41.4 µM: MALME-3M melanoma
43.7 µM: UO-31 renal
53 µM: A549 NSCLC
35.1 µM: M19-MEL melanoma
42.2 µM: TK-10 renal
41.7 µM: SNB-78 CNS
35.8 µM: SF-295 CNS
46.6 µM: DMS 114 small cell lung
> 100 µM: SK-MEL-5 melanoma | DLD-1 colon | OVCAR-8 ovarian | IGROV1 ovarian | HOP-62 NSCLC | A498 renal
> 10 µM: CAKI-1 renal | SF-539 CNS | SN12C renal | UACC-62 melanoma
45.7 µM: NCI-H460 lung
28.8 µM: HT29 colon
46.3 µM: K-562 leukemia
29.9 µM: MOLT-4 leukemia
32 µM: SW-620 colon
29 µM: OVCAR-5 ovarian
30.3 µM: ACHN renal
37.4 µM: LOX IMVI melanoma
43.2 µM: HCT-15 colon
34.6 µM: UACC-257 melanoma
42.4 µM: SK-MEL-28 melanoma
32.6 µM: COLO 205 colon | DMS 273 small cell lung
35.3 µM: M14 melanoma
36.3 µM: SK-OV-3 ovarian

NCC1OC(n2cnc3c(N)ncnc32)CC1O (configuration not stated)
not listed: SNB-78 CNS | HOP-18 NSCLC | DLD-1 colon | LXFL 529 NSCLC | KM20L2 colon | HCC-2998 colon | DMS 114 small cell lung | DMS 273 small cell lung | M19-MEL melanoma
> 100 µM: all other assays above

O=C(c1ccccc1)c1ccc2[nH]c(-c3c(Cl)c(Cl)c(Cl)c(Cl)c3C(=O)N/N=C/c3cccc(Oc4ccccc4)c3)nc2c1
not listed: UACC-62 melanoma | A498 renal | NCI-H460 lung | SNB-78 CNS | HOP-18 NSCLC | DLD-1 colon | LXFL 529 NSCLC | KM20L2 colon | HCC-2998 colon | DMS 114 small cell lung | DMS 273 small cell lung | M19-MEL melanoma
> 100 µM: all other assays above
